The results in this text go back to ChEMBL document CHEMBL2034936, “Discovery and extensive in vitro evaluations of NK-HDAC-1: a chiral histone deacetylase inhibitor as a promising lead” (J Med Chem, 2012).

Molecules are shown by their SMILES.

For experiment [1], the system named is HepG2. Put plainly: cells. Conditions: Homo sapiens, HepG2, 72 h. The format is functional.
Description: Growth inhibition of human HepG2 cells after 72 hrs by MTT assay
Experiment [2] relates to A549. Put plainly: cells. It counts as functional. As to conditions: Homo sapiens, A549, 72 h.
Description: Growth inhibition of human A549 cells after 72 hrs by MTT assay
The target in experiment [3] is Histone deacetylase. Put plainly: Inhibition of HDAC in human HeLa cell nuclear extracts using Ac-Arg-Gly-Lys(Ac)-AMC substrate by fluorimetry. The format is protein assay.
In experiment [4] the test system is HOP-92. Put plainly: cells. As to conditions: Homo sapiens, HOP-92, 72 h. It counts as functional.
Description: Growth inhibition of human HOP92 cells after 72 hrs by MTS assay
In experiment [5] the test system is OVCAR-3. The experiment in a line: cells. It counts as functional. Conditions: Homo sapiens, OVCAR-3, 72 h.
Description: Growth inhibition of human OVCAR3 cells after 72 hrs by MTS assay
Experiment [6] has as its system NCI-H522. Put plainly: cells. It counts as functional. As to conditions: Homo sapiens, NCI-H522, 72 h.
Description: Growth inhibition of human NCI-H522 cells after 72 hrs by MTS assay
Experiment [7] deals with MCF7. Put plainly: cells. It counts as functional. Conditions: Homo sapiens, MCF7, 48 h.
Description: Growth inhibition of human MCF7 cells after 48 hrs by MTT assay
The test system of experiment [8] is LOX IMVI. The experiment in a line: cells. The format is functional. As to conditions: Homo sapiens, 72 h.
Description: Growth inhibition of human LOXIMVI cells after 72 hrs by MTS assay
In experiment [9] the test system is A498. The experiment in a line: cells. It counts as functional. Conditions: Homo sapiens, A498, 72 h.
Description: Growth inhibition of human A498 cells after 72 hrs by MTS assay
The subject of experiment [10] is HCT-15. The experiment in a line: cells. As to conditions: Homo sapiens, HCT-15, 72 h. It counts as functional.
Description: Growth inhibition of human HCT15 cells after 72 hrs by MTS assay
Experiment [11] can be described thus: cells. As to conditions: Homo sapiens, Hs-578T, 72 h. The format is functional.
Description: Growth inhibition of human Hs 578T cells after 72 hrs by MTS assay
For experiment [12], the system named is SW-620. Put plainly: cells. As to conditions: Homo sapiens, SW-620, 72 h. The format is functional.
Description: Growth inhibition of human SW620 cells after 72 hrs by MTS assay
Experiment [13] deals with U-251. Put plainly: cells. It counts as functional. Conditions: Homo sapiens, U-251, 72 h.
Description: Growth inhibition of human U251 cells after 72 hrs by MTS assay
Experiment [14] deals with KM12. Put plainly: cells. It counts as functional. As to conditions: Homo sapiens, KM12, 72 h.
Description: Growth inhibition of human KM12 cells after 72 hrs by MTS assay
For experiment [15], the system named is PC-3. The experiment in a line: cells. Conditions: Homo sapiens, PC-3, 72 h. It counts as functional.
Description: Growth inhibition of human PC3 cells after 72 hrs by MTS assay
The test system of experiment [16] is MOLT-4. The experiment in a line: Growth inhibition of human MOLT4 cells after 72 hrs by MTS assay. It counts as functional. Conditions: MOLT-4, 72 h.
The subject of experiment [17] is Malme-3M. Put plainly: cells. It counts as functional. As to conditions: Homo sapiens, 72 h.
Description: Growth inhibition of human MALME-3M cells after 72 hrs by MTS assay
Experiment [18] concerns CCRF-CEM. Put plainly: Growth inhibition of human CCRF-CEM cells after 72 hrs by MTS assay. It counts as functional.
Experiment [19] deals with SF-539. Put plainly: cells. It counts as functional. As to conditions: Homo sapiens, SF-539, 72 h.
Description: Growth inhibition of human SF539 cells after 72 hrs by MTS assay
Experiment [20] deals with ACHN. Put plainly: cells. The format is functional. Conditions: Homo sapiens, 72 h.
Description: Growth inhibition of human ACHN cells after 72 hrs by MTS assay
For experiment [21], the system named is BT-549. The experiment in a line: cells. The format is functional. As to conditions: Homo sapiens, BT-549, 72 h.
Description: Growth inhibition of human BT549 cells after 72 hrs by MTS assay
The subject of experiment [22] is NCI-H226. Put plainly: cells. Conditions: Homo sapiens, NCI-H226, 72 h. The format is functional.
Description: Growth inhibition of human NCI-H226 cells after 72 hrs by MTS assay
The test system of experiment [23] is DU-145. Put plainly: cells. It counts as functional. As to conditions: Homo sapiens, DU-145, 72 h.
Description: Growth inhibition of human DU145 cells after 72 hrs by MTS assay
Experiment [24] relates to OVCAR-4. The experiment in a line: cells. It counts as functional. Conditions: Homo sapiens, OVCAR-4, 72 h.
Description: Growth inhibition of human OVCAR4 cells after 72 hrs by MTS assay
Experiment [25] concerns SK-OV-3. Put plainly: cells. The format is functional. Conditions: Homo sapiens, SK-OV-3, 72 h.
Description: Growth inhibition of human SKOV3 cells after 72 hrs by MTS assay
For experiment [26], the system named is SNB-19. The experiment in a line: cells. The format is functional. As to conditions: Homo sapiens, SNB-19, 72 h.
Description: Growth inhibition of human SNB19 cells after 72 hrs by MTS assay
For experiment [27], the system named is UO-31. The experiment in a line: cells. Conditions: Homo sapiens, UO-31, 72 h. It counts as functional.
Description: Growth inhibition of human UO31 cells after 72 hrs by MTS assay
For experiment [28], the system named is HCT-116. The experiment in a line: Growth inhibition of human HCT116 cells after 72 hrs by MTS assay. It counts as functional. As to conditions: HCT-116, 72 h.
Experiment [29] has as its system MDA-MB-231. The experiment in a line: cells. It counts as functional. As to conditions: Homo sapiens, MDA-MB-231, 72 h.
Description: Growth inhibition of human MDA-MB-231 cells after 72 hrs by MTS assay
Experiment [30] concerns SK-MEL-5. Put plainly: cells. It counts as functional. As to conditions: Homo sapiens, SK-MEL-5, 72 h.
Description: Growth inhibition of human SK-MEL-5 cells after 72 hrs by MTS assay
In experiment [31] the test system is SR. Put plainly: Growth inhibition of human SR cells after 72 hrs by MTS assay. It counts as functional. (Tetrazolium dyes change colour on reduction, which living cells bring about.)
A short description of experiment [32]: cells. As to conditions: Homo sapiens, NCI/ADR-RES, 72 h. The format is functional.
Description: Growth inhibition of human NCI-ADR-RES cells after 72 hrs by MTS assay
Experiment [33] relates to K562. The experiment in a line: cells. The format is functional. As to conditions: Homo sapiens, K562, 72 h.
Description: Growth inhibition of human K562 cells after 72 hrs by MTS assay
For experiment [34], the system named is SK-MEL-2. The experiment in a line: cells. It counts as functional. Conditions: Homo sapiens, SK-MEL-2, 72 h.
Description: Growth inhibition of human SK-MEL-2 cells after 72 hrs by MTS assay
For experiment [35], the system named is UACC-257. The experiment in a line: cells. It counts as functional. As to conditions: Homo sapiens, UACC-257, 72 h.
Description: Growth inhibition of human UACC257 cells after 72 hrs by MTS assay
In experiment [36] the test system is SF-268. The experiment in a line: cells. The format is functional. As to conditions: Homo sapiens, SF-268, 72 h.
Description: Growth inhibition of human SF268 cells after 72 hrs by MTS assay
The test system of experiment [37] is OVCAR-5. The experiment in a line: Growth inhibition of human OVCAR5 cells after 72 hrs by MTS assay. It counts as functional. Conditions: OVCAR-5, 72 h.
Experiment [38] relates to NCI-H322M. Put plainly: Growth inhibition of human NCI-H322M cells after 72 hrs by MTS assay. It counts as functional.
The subject of experiment [39] is OVCAR-8. The experiment in a line: cells. It counts as functional. Conditions: Homo sapiens, OVCAR-8, 72 h.
Description: Growth inhibition of human OVCAR8 cells after 72 hrs by MTS assay
In experiment [40] the test system is SNB-75. The experiment in a line: Growth inhibition of human SNB75 cells after 72 hrs by MTS assay. As to conditions: SNB-75, 72 h. It counts as functional.
Experiment [41] has as its system SN12C. The experiment in a line: cells. The format is functional. Conditions: Homo sapiens, 72 h.
Description: Growth inhibition of human SN12C cells after 72 hrs by MTS assay
Experiment [42] relates to NCI-H23. The experiment in a line: cells. It counts as functional. As to conditions: Homo sapiens, NCI-H23, 72 h.
Description: Growth inhibition of human NCI-H23 cells after 72 hrs by MTS assay
In experiment [43] the test system is T47D. The experiment in a line: cells. It counts as functional. As to conditions: Homo sapiens, 72 h.
Description: Growth inhibition of human T47D cells after 72 hrs by MTS assay
For experiment [44], the system named is NCI-H460. Put plainly: Growth inhibition of human NCI-H460 cells after 72 hrs by MTS assay. It counts as functional. As to conditions: NCI-H460, 72 h.
For experiment [45], the system named is HL-60(TB). The experiment in a line: cells. The format is functional. As to conditions: Homo sapiens, HL-60, 72 h.
Description: Growth inhibition of human HL-60(TB) cells after 72 hrs by MTS assay
The test system of experiment [46] is EKVX. Put plainly: cells. The format is functional. As to conditions: Homo sapiens, 72 h.
Description: Growth inhibition of human EKVX cells after 72 hrs by MTS assay
The test system of experiment [47] is MDA-MB-435. The experiment in a line: cells. The format is functional. Conditions: Homo sapiens, MDA-MB-435, 72 h.
Description: Growth inhibition of human MDA-MB-435 cells after 72 hrs by MTS assay
The test system of experiment [48] is UACC-62. Put plainly: Growth inhibition of human UACC62 cells after 72 hrs by MTS assay. The format is functional. As to conditions: UACC-62, 72 h.
For experiment [49], the system named is SK-MEL-28. The experiment in a line: cells. The format is functional. As to conditions: Homo sapiens, SK-MEL-28, 72 h.
Description: Growth inhibition of human SK-MEL-28 cells after 72 hrs by MTS assay
The test system of experiment [50] is TK-10. The experiment in a line: cells. The format is functional. As to conditions: Homo sapiens, TK-10, 72 h.
Description: Growth inhibition of human TK10 cells after 72 hrs by MTS assay
Experiment [51] relates to RXF 393. Put plainly: cells. The format is functional. Conditions: Homo sapiens, RXF 393, 72 h.
Description: Growth inhibition of human RXF393 cells after 72 hrs by MTS assay
The subject of experiment [52] is IGROV-1. The experiment in a line: cells. As to conditions: Homo sapiens, IGROV-1, 72 h. The format is functional.
Description: Growth inhibition of human IGROV1 cells after 72 hrs by MTS assay
The test system of experiment [53] is A549. Put plainly: cells. As to conditions: Homo sapiens, A549, 72 h. It counts as functional. This is another data set of the same source.
Description: Growth inhibition of human A549/ATCC cells after 72 hrs by MTS assay
The subject of experiment [54] is M14. The experiment in a line: cells. The format is functional. Conditions: Homo sapiens, M14, 72 h.
Description: Growth inhibition of human M14 cells after 72 hrs by MTS assay
Experiment [55] relates to HT-29. Put plainly: Growth inhibition of human HT-29 cells after 72 hrs by MTS assay. It counts as functional. Conditions: HT-29, 72 h.
Experiment [56] concerns SF-295. Put plainly: cells. The format is functional. Conditions: Homo sapiens, SF-295, 72 h.
Description: Growth inhibition of human SF295 cells after 72 hrs by MTS assay
In experiment [57] the test system is MDA-MB-468. The experiment in a line: cells. The format is functional. As to conditions: Homo sapiens, MDA-MB-468, 72 h.
Description: Growth inhibition of human MDA-MB-468 cells after 72 hrs by MTS assay
Experiment [58] deals with COLO 205. The experiment in a line: Growth inhibition of human COLO205 cells after 72 hrs by MTS assay. The format is functional. Conditions: COLO 205, 72 h.
Experiment [59] deals with 786-0. Put plainly: cells. It counts as functional. As to conditions: Homo sapiens, 786-0, 72 h.
Description: Growth inhibition of human 786-0 cells after 72 hrs by MTS assay
Experiment [60] relates to MDA-MB-231. The experiment in a line: cells. It counts as functional. Conditions: Homo sapiens, MDA-MB-231, 72 h. The source holds these as a separate data set.
Description: Growth inhibition of human MDA-MB-231 cells after 72 hrs by MTT assay

One may read the GI50 as the concentration giving 50% growth inhibition. Broadly, the IC50 is the concentration that gives 50% inhibition. A lower IC50 goes with higher potency. For the molecule `O=C(/C=C/c1cn(Cc2nc3ccccc3[nH]2)nn1)NO`, the GI50 in experiment [1] and in [2] was greater than 20000 nM in each case. In addition, the IC50 in experiment [3] is on record as 178 nM.

As for `CC(C)[C@H](c1nc2ccccc2o1)n1cc(/C=C/C(=O)NO)nn1`, the GI50 in experiment [4] came to 70 nM; in experiment [5], 470 nM; in experiment [6] it was 130 nM; in experiment [7], 450 nM; in experiment [8], 160 nM; in experiment [9], 260 nM. The GI50 in experiment [10] is 960 nM; in [11], 1300 nM; in experiment [12], 290 nM; in experiment [13], 340 nM; in experiment [14], 410 nM; in experiment [15] it was 280 nM. Also, the GI50 in experiment [16] came to 300 nM; in experiment [17] it was 63 nM; in experiment [18], 350 nM; in experiment [19], 750 nM; in experiment [20], 470 nM; in [21] it was 280 nM. The GI50 in experiment [22] was determined as 1300 nM; in experiment [23], 350 nM; in experiment [24], 2800 nM; in experiment [25], 260 nM; in [26] it was 850 nM; in experiment [27] it was 230 nM. For the same molecule, the GI50 in experiment [28] came to 180 nM; in experiment [29] it was 910 nM; in experiment [30] it was 250 nM; in experiment [31] it was 350 nM; in experiment [32], 95 nM; in [33] it was 280 nM. The GI50 in [34] is 350 nM; in experiment [35], 230 nM; in [36], 630 nM; in experiment [37] it was 400 nM; in experiment [38], 250 nM; in experiment [39], 240 nM. Moreover, the GI50 in [40] was found to be 410 nM; in experiment [41], 790 nM; in experiment [42], 350 nM; in experiment [43], 500 nM; in experiment [44] it was 390 nM; in experiment [45] it was 280 nM. For the same molecule, the GI50 is 680 nM in experiment [46]; 240 nM in [47]; 400 nM in [48]; 520 nM in experiment [49]; 160 nM in experiment [50]; 350 nM in experiment [51]. Further, the GI50 was found to be 190 nM in experiment [52]; 300 nM in experiment [53]; 410 nM in experiment [54]; 220 nM in [55]; 310 nM in [56]; 250 nM in experiment [57]. Further, the GI50 in experiment [58] came out at 250 nM; in experiment [59] it was 340 nM. The IC50 in [3] was found to be 31 nM.

On to `O=C(/C=C/c1cn(C(Cc2ccccc2)c2nc3ccccc3o2)nn1)NO` (racemic), for which the GI50 in experiment [1] is 5900 nM; in experiment [2] it was 4400 nM; in experiment [60], 5500 nM. The concentration for half-maximal inhibition (IC50) in [3] is 219 nM.

As for `NC(=O)CCC(c1nc2ccccc2o1)n1cc(/C=C/C(=O)NO)nn1` (racemic), the values for the GI50 in [1], in [2] and in [60] were 14000 nM, 21800 nM and 9500 nM, respectively. This molecule gave an IC50 in experiment [3] of 49 nM.

Consider `O=C(O)CCC(c1nc2ccccc2o1)n1cc(/C=C/C(=O)NO)nn1` (racemic), for which the GI50 in experiment [1], in experiment [2] and in experiment [60] was greater than 20000 nM throughout. In experiment [3], this molecule displayed an IC50 of 333 nM.

`CC(C)CC(c1nc2ccccc2o1)n1cc(/C=C/C(=O)NO)nn1` (racemic): the GI50 was 2200 nM in experiment [1], 660 nM in experiment [2] and 280 nM in experiment [60]. For the same molecule, the IC50 in experiment [3] came to 19 nM.

In the case of `CCC(C)C(c1nc2ccccc2o1)n1cc(/C=C/C(=O)NO)nn1` (racemic), the GI50 in experiment [1] amounted to 1700 nM; in [2], 520 nM; in experiment [60] it was 190 nM. In addition, the IC50 in experiment [3] amounted to 4 nM.
